Laboratory results taken from PMC11839852, “Preclinical comparison of (radio)lanthanides using mass spectrometry and nuclear imaging techniques: biodistribution of lanthanide-based tumor-targeting agents and lanthanides in ionic form” (European Journal of Nuclear Medicine and Molecular Imaging, 2024).
Like-named read-outs stand apart in the source and are kept apart here.

Columns and labels:
[1] = design: method as in doi:10.1007/BF02040048, PMID 16411740, PMID 16644751; details: coordination with DOTA chelator; cited from earlier work
[2] = system: non-tumor-bearing immunocompetent FVB mice; experiment: Biodistribution of Ln-DTPA complexes (multiplexed ICP-MS); details: 1 h p.i.
[3] = system: AR42J, PC-3 PIP and KB tumor cells; experiment: In vitro cell uptake of Ln-DTPA complexes; type: cell-based; details: all tumor cell lines, 1 h and 4 h incubation
Experimental: A mixture of equal molar amounts of the lanthanide chloride salts (100 nM stock solutions of ^natLuCl3, ^natTbCl3, ^natGdCl3, and ^natEuCl3, diluted in saline with an adjusted pH value to 3.5‒4.0) was prepared to obtain a final concentration of 10 pmol/mL (2.5 pmol/mL per lanthanide salt) and tested with AR42J, PC-3 PIP and KB tumor cells according to the same protocol as described for the Ln-labeled biomolecules (Supplementary Material). Analogous in vitro cell uptake studies were also performed with lanthanide metal complexes of diethylenetriaminepentaacetic acid (DTPA, Sigma Aldrich Chemie, Steinheim, Germany) to obtain a final concentration of 10 pmol/mL (2.5 pmol/mL per lanthanide complex) (Supplementary Material).
Methods: The same experimental setting as described for Ln-labeled biomolecules was applied to perform uptake and internalization studies with the lanthanide DTPA complexes (Ln-DTPA; Ln = ^natLu, ^natTb, ^natGd and ^natEu). The lanthanides were dissolved in 0.05 M hydrochloric acid and further diluted in a 1:5 (v/v) mixture of sodium acetate (0.5 M) and hydrochloric acid (0.05 M), pH ~4.5. A 10-fold molar excess of DTPA (5 mM, aq.) was added to each lanthanide dilution and the reaction mixtures were incubated for 10 min at 95 °C. The complexed lanthanides were further diluted in saline with an adjusted pH value to 3.5-4.0 for in vitro experiments. The applied solution was a mixture of the four Ln-DTPA complexes at a final concentration of 0.4 µM. Of these mixtures, 25 μL were added to the well with the corresponding tumor cells. The tumor cells were incubated for 1 h and 4 h, respectively, at 37 °C and 5% CO2. After incubation, the tumor cells were treated as described for the Ln-labeled biomolecules and processed for the measurement with ICP-MS.

[4] = system: non-tumor-bearing immunocompetent FVB mice; details: mouse, in vivo, 1 h

## O=C([O-])CN1CCN(CC(=O)[O-])CCN(CC(=O)O)CCN(CC(=O)[O-])CC1.[Gd+3] [Gd-DOTA]
[1]
  logK: 24.6

## O=C([O-])CN1CCN(CC(=O)[O-])CCN(CC(=O)[O-])CCN(CC(=O)[O-])CC1.[Tb+3] [Tb-DOTA]
[1]
  logK: 24.2

## O=C([O-])CN(CCN(CC(=O)[O-])CC(=O)[O-])CCN(CC(=O)[O-])CC(=O)[O-].[Tb+3] [[^159Tb]Tb-DTPA]
[2]
  Tissue uptake: Blood: <0.5 % ID/g
  Tissue uptake: Bone: <0.5 % ID/g
  Tissue uptake: Brain: <0.5 % ID/g
  Tissue uptake: Heart: <0.5 % ID/g
  Tissue uptake: Intestines: <0.5 % ID/g
  Tissue uptake: Kidneys: 2.1 ± 1.0 % ID/g
  Tissue uptake: Liver: <0.5 % ID/g
  Tissue uptake: Lung: <0.5 % ID/g
  Tissue uptake: Muscle: <0.5 % ID/g
  Tissue uptake: Pancreas: <0.5 % ID/g
  Tissue uptake: Salivary glands: <0.5 % ID/g
  Tissue uptake: Spleen: <0.5 % ID/g
  Tissue uptake: Stomach: <0.5 % ID/g
[3]
  Lanthanide detected in cell samples (background levels): < 20 ppt

## O=C([O-])CN1CCN(CC(=O)[O-])CCN(CC(=O)[O-])CCN(CC(=O)[O-])CC1.[Eu+3] [Eu-DOTA]
[1]
  logK: 23.4

## O=C([O-])CN(CCN(CC(=O)[O-])CC(=O)[O-])CCN(CC(=O)[O-])CC(=O)[O-].[Gd+3] [[^157Gd]Gd-DTPA]
[3]
  Lanthanide detected in cell samples (background levels): < 60 ppt
[4]
  Tissue uptake: Blood: <0.5 % ID/g
  Tissue uptake: Bone: <0.5 % ID/g
  Tissue uptake: Brain: <0.5 % ID/g
  Tissue uptake: Heart: 0.55 ± 0.06 % ID/g
  Tissue uptake: Intestines: <0.5 % ID/g
  Tissue uptake: Kidneys: 2.1 ± 0.9 % ID/g
  Tissue uptake: Liver: <0.5 % ID/g
  Tissue uptake: Lung: 0.56 ± 0.12 % ID/g
  Tissue uptake: Muscle: 0.51 ± 0.07 % ID/g
  Tissue uptake: Pancreas: <0.5 % ID/g
  Tissue uptake: Salivary glands: <0.5 % ID/g
  Tissue uptake: Spleen: 0.52 ± 0.03 % ID/g
  Tissue uptake: Stomach: 0.77 ± 0.17 % ID/g

## O=C([O-])CN1CCN(CC(=O)[O-])CCN(CC(=O)[O-])CCN(CC(=O)[O-])CC1.[Lu+3] [Lu-DOTA]
[1]
  logK: 25.4
